Literature values in patent US9920347B2, “Methods for producing virus particles with simplified glycosylation of surface proteins” (priority 2010, dated 2018).

Experiments:
intact cells = conditions: glycoproteins with Man7-9(GlcNAc)2 structures accumulate
[1] = test system: rat epididymal α-mannosidase
Golgi mannosidase II = molecular target: T1, Golgi mannosidase II (Homo sapiens, UniProt Q16706)
T1 sequence (Q16706 1-1144): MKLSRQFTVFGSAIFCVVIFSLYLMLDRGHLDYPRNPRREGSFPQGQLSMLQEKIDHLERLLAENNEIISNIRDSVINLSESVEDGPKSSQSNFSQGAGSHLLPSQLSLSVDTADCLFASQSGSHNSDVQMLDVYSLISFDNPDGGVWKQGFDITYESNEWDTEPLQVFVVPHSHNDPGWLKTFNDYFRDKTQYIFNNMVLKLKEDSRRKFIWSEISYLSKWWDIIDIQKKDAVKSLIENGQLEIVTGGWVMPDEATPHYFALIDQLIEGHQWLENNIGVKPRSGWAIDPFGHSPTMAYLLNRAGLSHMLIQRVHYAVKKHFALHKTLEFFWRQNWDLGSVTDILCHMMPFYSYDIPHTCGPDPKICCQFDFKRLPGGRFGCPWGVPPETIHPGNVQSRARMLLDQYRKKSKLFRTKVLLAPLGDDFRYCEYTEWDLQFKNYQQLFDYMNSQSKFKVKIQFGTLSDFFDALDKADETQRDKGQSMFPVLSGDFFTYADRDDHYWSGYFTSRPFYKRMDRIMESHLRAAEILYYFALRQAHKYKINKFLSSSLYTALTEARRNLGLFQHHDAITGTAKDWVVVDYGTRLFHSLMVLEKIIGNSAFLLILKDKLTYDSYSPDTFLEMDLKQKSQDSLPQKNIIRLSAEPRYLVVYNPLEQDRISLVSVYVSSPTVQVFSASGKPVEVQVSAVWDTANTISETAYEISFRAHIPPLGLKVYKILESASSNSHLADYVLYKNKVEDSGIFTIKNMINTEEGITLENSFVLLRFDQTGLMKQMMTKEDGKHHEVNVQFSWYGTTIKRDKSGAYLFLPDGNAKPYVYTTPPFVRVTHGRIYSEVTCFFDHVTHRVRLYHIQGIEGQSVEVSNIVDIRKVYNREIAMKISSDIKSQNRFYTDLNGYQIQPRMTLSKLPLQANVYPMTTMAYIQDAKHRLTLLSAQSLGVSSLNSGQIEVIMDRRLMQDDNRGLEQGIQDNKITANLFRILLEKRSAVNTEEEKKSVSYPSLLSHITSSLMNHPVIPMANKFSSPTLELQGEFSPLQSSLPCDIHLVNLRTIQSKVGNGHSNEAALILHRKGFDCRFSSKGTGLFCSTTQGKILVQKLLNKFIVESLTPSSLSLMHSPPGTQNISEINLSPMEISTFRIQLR

[2] = test system: animal Golgi enzyme, mannosidase I
[3] = molecular target: alpha-glucosidase amyloglucosidase (Aspergillus niger, UniProt P69328); conditions: read-out: concentration giving 50% inhibition of amyloglucosidase
Chain of alpha-glucosidase amyloglucosidase (P69328 25-640): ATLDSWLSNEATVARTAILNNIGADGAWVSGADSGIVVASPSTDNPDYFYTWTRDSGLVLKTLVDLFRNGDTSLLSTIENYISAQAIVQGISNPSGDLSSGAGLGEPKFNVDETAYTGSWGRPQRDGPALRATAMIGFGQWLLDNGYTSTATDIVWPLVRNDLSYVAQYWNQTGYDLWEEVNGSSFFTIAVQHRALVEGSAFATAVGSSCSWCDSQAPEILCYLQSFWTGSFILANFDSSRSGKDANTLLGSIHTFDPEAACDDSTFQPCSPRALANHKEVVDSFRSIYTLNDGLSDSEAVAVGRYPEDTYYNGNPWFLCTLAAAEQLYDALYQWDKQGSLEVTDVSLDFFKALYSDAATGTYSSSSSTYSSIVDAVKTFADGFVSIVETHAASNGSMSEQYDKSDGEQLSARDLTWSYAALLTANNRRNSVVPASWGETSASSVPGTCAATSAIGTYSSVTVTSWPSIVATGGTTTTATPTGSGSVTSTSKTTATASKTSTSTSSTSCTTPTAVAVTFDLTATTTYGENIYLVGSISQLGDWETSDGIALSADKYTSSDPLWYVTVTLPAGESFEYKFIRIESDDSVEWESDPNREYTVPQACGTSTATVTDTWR

Structure (SMILES): OC[C@H]1NC[C@@H](O)[C@@H](O)[C@@H]1O [Deoxymannojirimycin]
- inhibition of rat liver mammosidase I (rat liver mammosidase I): fairly potent inhibitor
- effect on synthesis of complex types of N-linked oligosaccharides (intact cells): blocked the synthesis of complex types of N-linked oligosaccharides
- prevention of formation of complex chains (cultured mammalian cells; 50 μg/ml): does not prevent the formation of all complex chains

Structure (SMILES): O[C@H]1[C@H](O)[C@@H](O)CN2CC[C@H](O)[C@H]12 [Castanospermine]
- inhibition of alpha-glucosidase activities (alpha-glucosidase): inhibits
- inhibition of dengue virus infection (dengue virus): inhibits

Structure (SMILES): CS[C@@H]1[C@@H](N)[C@@H](O)[C@@H](O)[C@H]1O [Mannostatin A]
- inhibition of rat epididymal α-mannosidase [1]: potent inhibitor

Structure (SMILES): O[C@H]1[C@H]2[C@H](O)CCCN2C[C@H]1O [Swainsonine]
- inhibition of Golgi mannosidase II (Golgi mannosidase II): potent inhibitor
- effect on mannosidase 1 (mannosidase 1): no effect

Structure (SMILES): O=C1N[C@@H]2[C@@H](O)[C@@H](O)[C@H](O)[C@@H](CO)N2C1=O [Kifunensine]
- inhibition of mannosidase I [2]: inhibits
- shift of N-linked oligosaccharides from complex chains to Man9(GlcNAc)2 structures (cultured mammalian cells; 1 μg/ml or higher): complete shift

Structure (SMILES): OC[C@@H]1[C@@H](O)[C@H](O)[C@H]2[C@@H](O)CCN21 [Australine]
- IC50 [3]: 5.8 µM
- inhibition of beta-glucosidase (beta-glucosidase): did not inhibit
- inhibition of alpha-mannosidase (alpha-mannosidase): did not inhibit
- inhibition of beta-mannosidase (beta-mannosidase): did not inhibit
- inhibition of alpha-galactosidase (alpha-galactosidase): did not inhibit
- inhibition of beta-galactosidase (beta-galactosidase): did not inhibit
